In patent US11377440B2, “Modulators of stimulator of interferon genes (STING)” (GlaxoSmithKline Intellectual Property Development Limited, priority 2017, dated 2022):

System: T1, STING
T1 construct: endogenous in cells; host or cells: THP-1
Test: Functional assay IV (THP-1 antagonist assay), IFNβ secretion after Bacmam virus
Format: cell-based, human
Settings: THP-1 cells, Bacmam virus MOI of 40 pfu/cell; upper limit of the assay 9.1

Compound: CCn1nc(C)cc1C(=O)/N=c1\n(C)c2cc(C(N)=O)ccc2n1CCCCCn1/c(=N/C(=O)c2cc(C)nn2CC)n(C)c2cc(C(N)=O)ccc21 [Example 24]
- THP-1 antagonist assay (pIC50): 4.6
